Holding throughout (experiment): biochemical
Parameters in all cases: Eurofins recombinant human kinase profiling, remaining kinase activity as % of control, 10 uM ATP
Holding throughout (details): ATP 10 uM; read-out: %Ctrl@10 μM

The target in one experiment is T1, Abl(Y253F)(h) (Homo sapiens, UniProt P00519, Y253F).
T1 construct: gene ABL1
Put shortly:
(§1)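 Recombinant human kinases, 401 in total, screened using an outsourced kinase profiling assay.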

A further experiment concerns the target CDK17/cyclinY(h) (Homo sapiens, UniProt Q00537). The gist of the method: as §1
For the next experiment, the target named is T2, CRIK(h) (Homo sapiens, UniProt O14578).
T2 construct: gene CIT
Put shortly:
as §1

Another experiment concerns the target T3, CaMKI(h) (Homo sapiens, UniProt Q14012).
T3 construct: gene CAMK1
Put shortly:
as §1

Another experiment addresses EGFR(L861Q)(h) (Homo sapiens, UniProt P00533, L861Q). Put shortly:
as §1

Another experiment has as its target Fer(h) (Homo sapiens, UniProt P16591). The gist of the method: as §1
The next experiment addresses GRK1(h) (Homo sapiens, UniProt Q15835). Put shortly:
as §1

A further experiment has as its target GRK6(h) (Homo sapiens, UniProt P43250). Put shortly: as §1
The target in the next experiment is T4, IR(h), activated (Homo sapiens, UniProt P06213).
T4 construct: gene INSR
The gist of the method:
as §1

A further experiment deals with MuSK(h) (Homo sapiens, UniProt O15146). The gist of the method: as §1
For the next experiment, the target named is NEK4(h) (Homo sapiens, UniProt P51957). Put shortly: as §1
A further experiment addresses T5, PKBγ(h) (Homo sapiens, UniProt Q9Y243).
T5 construct: gene AKT3
Put shortly: as §1

A further experiment concerns the target T6, PRK1(h) (Homo sapiens, UniProt Q16512).
T6 construct: gene PKN1
Put shortly: as §1

A further experiment addresses T7, Pim-3(h) (Homo sapiens, UniProt Q86V86).
T7 construct: gene PIM3
The gist of the method: as §1

A further experiment concerns the target RIPK2(h) (Homo sapiens, UniProt O43353). Put shortly: as §1
The next experiment deals with T8, Rsk4(h) (Homo sapiens, UniProt Q9UK32).
T8 construct: gene RPS6KA6
Put shortly:
as §1

In a further experiment the target is TBK1(h) (Homo sapiens, UniProt Q9UHD2). The gist of the method: as §1
A further experiment concerns the target TTBK1(h) (Homo sapiens, UniProt Q5TCY1). The gist of the method: as §1
The next experiment has as its target T9, Tie2(R849W)(h) (Homo sapiens, UniProt Q02763, R849W).
T9 construct: gene TEK
The gist of the method:
as §1

A further experiment addresses T10, cKit(V560G)(h) (Homo sapiens, UniProt P10721, V560G).
T10 construct: gene KIT
The gist of the method: as §1

A further experiment deals with T11, cSRC(h) (Homo sapiens, UniProt P12931).
T11 construct: gene SRC
Put shortly:
as §1

Another experiment has as its target T12, eEF-2K(h) (Homo sapiens, UniProt O00418).
T12 construct: gene EEF2K
Put shortly: as §1

T8 sequence (Q9UK32 whole entry): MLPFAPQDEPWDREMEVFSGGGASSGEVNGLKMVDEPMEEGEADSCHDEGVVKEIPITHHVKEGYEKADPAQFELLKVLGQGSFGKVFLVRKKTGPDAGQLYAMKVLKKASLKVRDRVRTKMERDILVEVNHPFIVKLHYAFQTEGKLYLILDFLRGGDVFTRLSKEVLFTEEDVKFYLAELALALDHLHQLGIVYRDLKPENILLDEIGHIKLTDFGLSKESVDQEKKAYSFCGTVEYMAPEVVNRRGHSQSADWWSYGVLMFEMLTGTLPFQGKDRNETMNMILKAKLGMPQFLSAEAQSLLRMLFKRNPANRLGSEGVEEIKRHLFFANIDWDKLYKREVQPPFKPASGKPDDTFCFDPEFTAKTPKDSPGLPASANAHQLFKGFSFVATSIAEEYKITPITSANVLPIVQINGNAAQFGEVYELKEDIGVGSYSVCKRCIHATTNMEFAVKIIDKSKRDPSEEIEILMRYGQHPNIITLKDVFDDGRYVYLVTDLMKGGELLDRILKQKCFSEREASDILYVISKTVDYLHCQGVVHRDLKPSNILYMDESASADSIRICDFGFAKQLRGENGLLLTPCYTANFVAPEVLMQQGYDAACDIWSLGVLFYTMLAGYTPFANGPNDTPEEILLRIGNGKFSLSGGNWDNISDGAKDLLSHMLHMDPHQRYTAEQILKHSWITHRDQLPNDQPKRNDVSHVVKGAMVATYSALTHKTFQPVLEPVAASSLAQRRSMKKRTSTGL
Chain of RIPK2(h) (O43353 whole entry): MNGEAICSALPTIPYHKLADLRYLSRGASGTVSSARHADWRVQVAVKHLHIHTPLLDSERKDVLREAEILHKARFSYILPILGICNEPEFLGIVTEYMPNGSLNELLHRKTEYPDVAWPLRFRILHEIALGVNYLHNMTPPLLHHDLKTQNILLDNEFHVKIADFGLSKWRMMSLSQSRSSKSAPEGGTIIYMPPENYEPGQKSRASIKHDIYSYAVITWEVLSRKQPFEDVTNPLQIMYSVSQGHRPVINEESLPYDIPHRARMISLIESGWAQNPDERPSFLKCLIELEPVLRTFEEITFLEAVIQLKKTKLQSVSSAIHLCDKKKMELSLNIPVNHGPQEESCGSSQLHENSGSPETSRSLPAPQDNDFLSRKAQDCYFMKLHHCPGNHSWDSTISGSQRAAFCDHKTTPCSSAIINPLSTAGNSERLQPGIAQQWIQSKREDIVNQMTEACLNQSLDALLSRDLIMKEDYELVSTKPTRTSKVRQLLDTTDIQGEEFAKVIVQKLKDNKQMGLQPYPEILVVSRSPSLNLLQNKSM
T11 sequence (P12931 whole entry): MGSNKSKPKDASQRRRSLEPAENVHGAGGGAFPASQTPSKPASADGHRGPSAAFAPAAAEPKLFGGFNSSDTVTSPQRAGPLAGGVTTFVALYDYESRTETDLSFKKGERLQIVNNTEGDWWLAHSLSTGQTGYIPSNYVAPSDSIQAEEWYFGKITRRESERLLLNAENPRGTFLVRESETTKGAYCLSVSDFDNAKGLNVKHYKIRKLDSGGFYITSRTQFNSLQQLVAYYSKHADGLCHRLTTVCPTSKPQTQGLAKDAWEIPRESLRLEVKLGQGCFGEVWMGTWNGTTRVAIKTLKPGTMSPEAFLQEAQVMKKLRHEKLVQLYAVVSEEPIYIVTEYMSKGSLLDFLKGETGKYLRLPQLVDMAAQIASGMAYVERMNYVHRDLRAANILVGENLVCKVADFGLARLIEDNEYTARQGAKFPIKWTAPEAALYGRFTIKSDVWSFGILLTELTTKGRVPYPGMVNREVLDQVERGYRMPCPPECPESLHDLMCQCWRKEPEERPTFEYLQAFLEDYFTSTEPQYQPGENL
T5 sequence (Q9Y243 whole entry): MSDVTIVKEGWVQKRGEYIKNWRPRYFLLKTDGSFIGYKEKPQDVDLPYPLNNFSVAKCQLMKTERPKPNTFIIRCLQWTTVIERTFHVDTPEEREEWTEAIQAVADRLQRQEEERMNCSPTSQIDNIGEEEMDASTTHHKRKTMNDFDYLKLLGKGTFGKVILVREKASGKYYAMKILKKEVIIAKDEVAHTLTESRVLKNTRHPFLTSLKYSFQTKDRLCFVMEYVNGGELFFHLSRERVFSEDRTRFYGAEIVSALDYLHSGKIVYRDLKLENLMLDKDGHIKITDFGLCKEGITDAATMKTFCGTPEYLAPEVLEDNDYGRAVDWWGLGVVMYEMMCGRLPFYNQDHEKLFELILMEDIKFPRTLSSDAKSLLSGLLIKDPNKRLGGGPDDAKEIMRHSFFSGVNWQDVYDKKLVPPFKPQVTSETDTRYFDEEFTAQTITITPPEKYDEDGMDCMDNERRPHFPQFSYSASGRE
T3 sequence (Q14012 whole entry): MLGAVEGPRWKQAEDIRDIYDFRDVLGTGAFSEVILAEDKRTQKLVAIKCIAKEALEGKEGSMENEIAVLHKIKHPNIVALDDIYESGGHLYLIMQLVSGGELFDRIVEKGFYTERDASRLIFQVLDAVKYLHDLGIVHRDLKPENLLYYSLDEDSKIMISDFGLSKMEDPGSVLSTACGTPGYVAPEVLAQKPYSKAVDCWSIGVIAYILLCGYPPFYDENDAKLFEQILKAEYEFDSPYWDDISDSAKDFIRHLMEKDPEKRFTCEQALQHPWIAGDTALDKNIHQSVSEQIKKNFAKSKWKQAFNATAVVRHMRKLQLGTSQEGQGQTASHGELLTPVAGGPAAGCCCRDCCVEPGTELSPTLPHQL
Chain of NEK4(h) (P51957 whole entry): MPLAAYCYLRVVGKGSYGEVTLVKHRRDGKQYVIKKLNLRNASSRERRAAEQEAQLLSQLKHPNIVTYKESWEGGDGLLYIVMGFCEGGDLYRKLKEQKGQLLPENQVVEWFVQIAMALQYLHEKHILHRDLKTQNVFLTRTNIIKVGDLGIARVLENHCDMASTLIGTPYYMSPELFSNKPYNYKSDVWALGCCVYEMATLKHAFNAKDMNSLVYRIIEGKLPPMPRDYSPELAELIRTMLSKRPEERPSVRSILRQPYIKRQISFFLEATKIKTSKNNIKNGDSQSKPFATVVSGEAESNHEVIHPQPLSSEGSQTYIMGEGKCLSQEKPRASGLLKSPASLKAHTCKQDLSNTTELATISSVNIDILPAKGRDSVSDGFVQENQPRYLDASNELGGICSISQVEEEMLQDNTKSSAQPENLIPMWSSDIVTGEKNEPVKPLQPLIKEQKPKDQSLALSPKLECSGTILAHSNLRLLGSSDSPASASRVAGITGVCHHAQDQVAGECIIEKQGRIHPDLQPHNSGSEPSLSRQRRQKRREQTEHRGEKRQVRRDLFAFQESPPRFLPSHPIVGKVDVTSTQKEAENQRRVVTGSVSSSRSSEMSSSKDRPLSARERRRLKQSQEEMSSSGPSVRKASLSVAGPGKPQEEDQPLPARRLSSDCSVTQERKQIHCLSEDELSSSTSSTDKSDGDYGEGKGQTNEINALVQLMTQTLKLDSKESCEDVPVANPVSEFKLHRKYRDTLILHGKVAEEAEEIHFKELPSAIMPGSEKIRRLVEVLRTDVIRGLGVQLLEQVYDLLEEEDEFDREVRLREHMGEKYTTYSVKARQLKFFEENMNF
Chain of TBK1(h) (Q9UHD2 whole entry): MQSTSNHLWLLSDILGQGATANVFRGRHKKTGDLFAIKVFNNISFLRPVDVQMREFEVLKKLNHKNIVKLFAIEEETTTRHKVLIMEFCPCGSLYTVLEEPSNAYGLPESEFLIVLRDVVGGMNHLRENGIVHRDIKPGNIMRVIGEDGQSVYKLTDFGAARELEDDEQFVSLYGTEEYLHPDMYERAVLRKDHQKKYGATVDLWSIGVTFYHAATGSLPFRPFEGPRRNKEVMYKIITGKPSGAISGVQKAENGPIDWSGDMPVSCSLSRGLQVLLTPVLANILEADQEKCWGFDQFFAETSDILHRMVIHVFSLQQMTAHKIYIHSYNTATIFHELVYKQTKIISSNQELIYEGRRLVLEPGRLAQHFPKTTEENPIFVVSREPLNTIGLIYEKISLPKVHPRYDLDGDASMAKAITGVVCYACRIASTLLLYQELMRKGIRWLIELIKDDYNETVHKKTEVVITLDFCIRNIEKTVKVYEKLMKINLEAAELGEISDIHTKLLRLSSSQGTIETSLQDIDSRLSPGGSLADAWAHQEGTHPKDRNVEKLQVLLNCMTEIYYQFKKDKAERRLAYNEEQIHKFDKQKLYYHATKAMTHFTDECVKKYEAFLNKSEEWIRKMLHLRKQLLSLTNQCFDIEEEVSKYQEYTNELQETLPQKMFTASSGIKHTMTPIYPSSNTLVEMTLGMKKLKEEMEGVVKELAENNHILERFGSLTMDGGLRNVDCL

As for `C1=C(c2nc(-c3cnn(C4CCNCC4)c3)cn3cc(-c4ccccc4)nc23)CCOC1` [YL-939], the remaining activity at 10 µM is 123% on Abl(Y253F)(h); 93% at CDK17/cyclinY(h); 101% on CRIK(h); 81% on CaMKI(h); 61% on EGFR(L861Q)(h); 86% on Fer(h). For the same molecule, the remaining activity at 10 µM worked out at 109% at GRK1(h); 87% on GRK6(h); 91% at IR(h), activated; 88% on MuSK(h); 118% at NEK4(h); 97% at PKBγ(h). Besides, the remaining activity at 10 µM at PRK1(h) stood at 96%; on Pim-3(h), 103%; at RIPK2(h), 71%; on Rsk4(h), 73%; at TBK1(h), 90%; on TTBK1(h), 103%. Moreover, the remaining activity at 10 µM on Tie2(R849W)(h) was determined as 122%; on cKit(V560G)(h), 88%; at cSRC(h) it was 78%; at eEF-2K(h) it was 93%.

The values above are taken from paper PMC9719519, “Non-classical ferroptosis inhibition by a small molecule targeting PHB2” (Nature Communications, 2022).
